Data: US20130045991A1, “NEUROPROTECTIVE MODULATION OF NMDA RECEPTOR SUBTYPE ACTIVITIES” (THE UNIVERSITY OF BRITISH COLUMBIA, priority 2005, published 2013)

Key:
Type in all cases: cell-based, rat
cortical neurons [1] = assay: Neuronal apoptosis under basal, non-stimulated conditions; settings: no bicuculline stimulation
Method: Under bicuculline incubation, the increased action potential-dependent synaptic release of glutamate may lead to activation of extrasynaptic NMDA receptors by glutamate spillover.
(§1) To visualize injured neurons, Hoechst-33342 (10 μg/ml) was added to the culture medium 20 h after treatments and incubated for 45 min at 37 °C. Images were taken with a Leica DMIRE2 fluorescence microscope. Quantitative assessment of neuronal apoptosis was performed 20 h following treatments using a Cell Death Detection […] Kit (Roche Applied Science). Absorbance readings were determined using a spectrophotometric microplate reader. Data analyses were carried out according to the manufacturer's instructions. Data are expressed as the difference in apoptosis relative to control and are expressed as a percentage.

cortical neurons [2] = assay: Apoptosis by NMDA after blockade of synaptic NMDA receptors (extrasynaptic receptors); settings: synaptic receptors blocked with MK-801 plus bicuculline; NMDA 50 μM plus 10 μM glycine 20 min; assayed 20 h after
Method: In accordance with various aspect of the invention, we have illustrated the role of extrasynaptic NR2A- and NR2B-containing receptors in mediating NMDA-induced cell survival and death. After a specific blockade of synaptic NMDA receptors and wash-out of bicuculline and MK-801, the neurons were treated with NMDA (50 μM plus 10 μM glycine) for 20 min in the absence or presence of NVP-AAM077 (0.4 μM) or Ro 25-6981 (0.5 μM). […] Thus, as with synaptic NMDA receptors, activation of extrasynaptic NR2A-containing receptors has a role in promoting cell survival, counteracting NR2B-containing receptor-mediated neuronal apoptosis. […]
(§2) To visualize injured neurons, Hoechst-33342 (10 μg/ml) was added to the culture medium 20 h after treatments and incubated for 45 min at 37 °C. Images were taken with a Leica DMIRE2 fluorescence microscope. Quantitative assessment of neuronal apoptosis was performed 20 h following treatments using a Cell Death Detection ELISAPLUS Kit (Roche Applied Science). Absorbance readings were determined using a spectrophotometric microplate reader. […] Data are expressed as the difference in apoptosis relative to control and are expressed as a percentage.

cortical neurons [3] = assay: NMDA-mediated excitotoxicity: neuronal apoptosis in cortical cultures; settings: 50 μM NMDA plus 10 μM glycine 20 min, assayed 20 h after; APV 50 μM, Ro25-6981 0.5 μM, NVP-AAM077 0.4 μM
Method: (§3) Mature neurons (11-14 DIV) were used for experiments.
as §1

[4] = tested on: NMDA receptors (NR2A- and NR2B-containing); assay: Whole-cell currents evoked by NMDA in cultured cortical neurons; settings: for percentage blockade of NMDA-induced currents, applied alone: NVP-AAM077 0.4 μM or Ro25-6981 0.5 μM bath applied alone, 10 μM glycine, 5 μM strychnine, -60 mV; for percentage blockade of NMDA-induced currents, applied alone / percentage blockade of NMDA-induced currents, applied after blockade by the other antagonist: 50 μM NMDA; for percentage blockade of NMDA-induced currents, applied after blockade by the other antagonist: sequential application, NVP-AAM077 0.4 μM, Ro25-6981 0.5 μM
cortical neurons [5] = assay: Neuronal apoptosis with bicuculline-enhanced activation of synaptic NMDA receptors; settings: bicuculline 50 μM, 4 h; for neuronal apoptosis on co-application with bicuculline: apoptosis quantified 20 h after
Method: The function of the NR2A and NR2B synaptic receptor subpopulations in mediating neuronal survival or death is also illustrated herein, as follows. To increase activation of synaptic NMDA receptors by synaptically released glutamate, neurons were incubated with the GABAA receptor antagonist bicuculline (50 μM, 4 h). Bicuculline increases neuronal excitation by blocking the GABAA receptor-mediated synaptic inhibition and thereby enhances action potential-dependent synchronized release of glutamate from presynaptic terminals. Neuronal apoptosis was quantified 20 h following the treatments. […] The NR2A blockade-induced neuronal apoptosis was demonstrably mediated by synaptic NR2B-containing receptors, as it was prevented in the presence of Ro 25-6981 (p<0.01; FIG. 3B).
Dissociated cultures of cortical neurons were prepared from 18-day Sprague-Dawley rat embryos as described previously (Mielke et al., 2005). To obtain mixed cortical cultures enriched with neurons, uridine (10 μM) and 5-Fluor-2′-deoxyuridine (10 μM) were added to the culture medium at 3 DIV and maintained for 48 h, to inhibit non-neuronal cell proliferation, before the cultures were shifted back to the normal culture medium. Mature neurons (11-14 DIV) were used for experiments. To induce neuronal apoptosis, cortical cultures were stimulated with NMDA (50 μM) and glycine (10 μM) for 20 min, or STS (100 nM) for 1 h in Mg2+-free extracellular solution (ECS) containing (mM): 25 HEPES acid, 140 NaCl, 33 glucose, 5.4 KCl and 1.3 CaCl2, with pH 7.35 and osmolarity 320-330 mOsm. […]
as §2

cortical neurons [6] = assay: Glycine pretreatment before NMDA-induced neuronal apoptosis; settings: co-applied with glycine; NVP-AAM077 0.4 μM, Ro25-6981 0.5 μM
Method: as §3, §1

SMILES	neuronal apoptosis after incubation for 4 h (cortical neurons [1])	neuronal apoptosis after incubation for 48 h (cortical neurons [1])	effect on apoptosis elicited by NMDA via extrasynaptic NMDA receptors (cortical neurons [2])	effect on NMDA-induced neuronal apoptosis/damage (cortical neurons [3])	percentage blockade of NMDA-induced currents, applied alone [4]	percentage blockade of NMDA-induced currents, applied after blockade by the other antagonist [4]	neuronal apoptosis on co-application with bicuculline (cortical neurons [5])	effect on the neuroprotective effect of glycine pretreatment (cortical neurons [6])	effect on NVP-AAM077 (48 h)-induced apoptosis (cortical neurons [1])	reduction in the percentage of NMDA current inhibition by Ro25-6981 following NVP-AAM077 blockade ([4]; alone vs after NVP-AAM077 0.4 μM) [%]	effect on NR2A blockade (NVP-AAM077 + bicuculline)-induced neuronal apoptosis (cortical neurons [5]; plus NVP-AAM077)
C[C@H](NC(c1cccc2[nH]c(=O)c(=O)[nH]c12)P(=O)(O)O)c1ccc(Br)cc1 (stereo partly drawn) [NVP-AAM077]	failed to increase neuronal apoptosis	significant increase in neuronal apoptosis	potentiated NMDA-mediated apoptosis	significantly enhanced	42.9%±5.9%	43.4%±12.4%	significantly increased neuronal apoptosis	prevented			
C[C@@H](CN1CCC(Cc2ccccc2)CC1)[C@@H](O)c1ccc(O)cc1 (relative stereo) [Ro 25-6981, [R-(R*,S*)]-α-(4-Hydroxyphenyl)-β-methyl-4-(phenylmethyl)-1-piperidinepropanol]		did not increase neuronal apoptosis	prevented	prevented NMDA-induced neuronal apoptosis	34.6%±1.8%	29.0%±3.3%	did not cause apoptotic cell death	not by affected	prevented	5.6	prevented
